From article PMC3038857, “Using Nuclear Receptor Activity to Stratify Hepatocarcinogens” (PLoS ONE, 2011)

Key:
[1] = molecular target: T1, AHR (aryl hydrocarbon receptor) (Homo sapiens, UniProt P35869); assay: ATG_Ahr_CIS: Factorial reporter gene assay (multiplexed transcription reporter, HepG2); format: cell-based; design: scale not given here; details: HepG2; scale not given, looks like -log10 of molar active concentration; 0 = no activity
T1 construct: endogenous in cells; host or cells: HepG2
T1 sequence (P35869 11-848): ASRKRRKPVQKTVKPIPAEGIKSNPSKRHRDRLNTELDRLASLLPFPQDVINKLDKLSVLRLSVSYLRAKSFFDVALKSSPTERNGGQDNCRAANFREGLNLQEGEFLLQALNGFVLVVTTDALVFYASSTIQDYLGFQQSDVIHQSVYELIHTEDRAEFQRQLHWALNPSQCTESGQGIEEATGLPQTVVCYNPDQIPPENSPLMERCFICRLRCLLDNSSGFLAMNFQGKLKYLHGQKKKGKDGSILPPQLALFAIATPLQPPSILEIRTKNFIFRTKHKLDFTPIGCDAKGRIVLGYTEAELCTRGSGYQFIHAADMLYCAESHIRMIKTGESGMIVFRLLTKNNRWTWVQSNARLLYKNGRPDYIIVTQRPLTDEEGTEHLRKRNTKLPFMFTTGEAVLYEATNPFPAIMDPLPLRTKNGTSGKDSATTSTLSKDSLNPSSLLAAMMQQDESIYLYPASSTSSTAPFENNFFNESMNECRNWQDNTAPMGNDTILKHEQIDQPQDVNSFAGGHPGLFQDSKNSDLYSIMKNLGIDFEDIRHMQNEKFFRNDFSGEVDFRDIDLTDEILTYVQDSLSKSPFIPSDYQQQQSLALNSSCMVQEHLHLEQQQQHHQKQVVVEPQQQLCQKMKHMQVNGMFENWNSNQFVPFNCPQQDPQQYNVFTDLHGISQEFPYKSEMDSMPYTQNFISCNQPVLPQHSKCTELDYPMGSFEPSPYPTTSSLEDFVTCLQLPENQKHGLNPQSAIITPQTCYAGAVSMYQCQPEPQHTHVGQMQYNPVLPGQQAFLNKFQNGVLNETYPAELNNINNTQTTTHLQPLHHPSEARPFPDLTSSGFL
Procedure, shortened: (§1)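 HepG2 cells transfected with multiplexed reporter libraries: cis-acting binding-site reporters (CIS) and a one-hybrid nuclear-receptor trans system (TRANS). Chemicals tested at seven concentrations, starting at the maximum tolerated concentration with three-fold serial dilutions.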

LXRb (NR1H2) = molecular target: T2, LXRb (NR1H2) (Homo sapiens, UniProt P55055); assay: ATG_LXRb_TRANS: Factorial reporter gene assay (HepG2); format: cell-based; details: HepG2; scale not given, looks like -log10 of molar active concentration; 0 = no activity
T2 construct: expressed in transfected cells; host or cells: HepG2
T2 sequence (P55055 1-460): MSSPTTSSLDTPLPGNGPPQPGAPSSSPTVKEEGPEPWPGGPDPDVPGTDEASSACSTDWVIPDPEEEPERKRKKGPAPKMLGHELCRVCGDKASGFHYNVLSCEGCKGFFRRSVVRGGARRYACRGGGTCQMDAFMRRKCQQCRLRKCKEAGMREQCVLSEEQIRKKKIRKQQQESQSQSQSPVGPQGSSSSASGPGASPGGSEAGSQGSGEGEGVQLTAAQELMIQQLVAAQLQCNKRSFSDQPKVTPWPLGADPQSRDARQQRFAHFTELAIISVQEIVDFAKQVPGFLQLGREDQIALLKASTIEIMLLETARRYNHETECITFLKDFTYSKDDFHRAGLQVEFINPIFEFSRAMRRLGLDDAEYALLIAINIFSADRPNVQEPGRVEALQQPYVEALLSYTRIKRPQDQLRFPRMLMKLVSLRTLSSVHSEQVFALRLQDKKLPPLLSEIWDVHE
Procedure, shortened: as §1

[2] = molecular target: T3, PPARA (peroxisome proliferator-activated receptor alpha) (Homo sapiens, UniProt Q07869); assay: ATG_PPARa_TRANS: Factorial reporter gene assay (HepG2); format: cell-based; design: scale not given here; details: scale not given, looks like -log10 of molar active concentration, 0 = no activity
T3 construct: expressed in transfected cells; host or cells: HepG2
T3 sequence (Q07869 1-468): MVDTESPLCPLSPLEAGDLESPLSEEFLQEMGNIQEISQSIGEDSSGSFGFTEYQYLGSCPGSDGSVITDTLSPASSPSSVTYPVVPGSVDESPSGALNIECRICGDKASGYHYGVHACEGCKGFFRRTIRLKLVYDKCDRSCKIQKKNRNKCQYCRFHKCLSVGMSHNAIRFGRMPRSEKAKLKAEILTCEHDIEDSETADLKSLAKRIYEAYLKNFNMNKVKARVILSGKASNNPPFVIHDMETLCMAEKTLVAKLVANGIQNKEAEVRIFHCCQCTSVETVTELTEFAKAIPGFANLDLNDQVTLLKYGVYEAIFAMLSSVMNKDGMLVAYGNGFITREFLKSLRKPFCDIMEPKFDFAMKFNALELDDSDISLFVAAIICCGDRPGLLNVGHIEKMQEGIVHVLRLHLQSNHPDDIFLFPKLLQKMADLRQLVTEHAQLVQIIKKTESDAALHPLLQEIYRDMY
Protocol: A multiple reporter transcription unit (MRTU) library consisting of 48 transcription factor binding sites was transfected into the HepG2 human liver hepatoma cell line. In addition to the cis-acting reporter genes (CIS), a modification of the approach was used to generate a trans-system (TRANS) with a mammalian one-hybrid assay consisting of an additional 25 MRTU library reporting the activity of nuclear receptor super-family members. […] These assays were performed by Attagene Inc. (Morrisville NC) under contract to EPA.
In addition to the cis-acting reporter genes (CIS), a modification of the approach was used to generate a trans-system (TRANS) with a mammalian one-hybrid assay consisting of an additional 25 MRTU library reporting the activity of nuclear receptor super-family members. […] Chemicals were then tested in the CIS and TRANS assays at seven concentrations starting at the MTC and followed by three-fold serial dilutions. These assays were performed by Attagene Inc. (Morrisville NC) under contract to EPA. Detailed description of the methods, data and analysis methods for this dataset will be presented in a separate publication.

ERa (ESR1) = molecular target: T4, ERa (ESR1) (Homo sapiens, UniProt P03372); assay: NCGC_ERalpha_Antagonist: GAL4 BLAM Reporter gene assay: ERa; format: cell-based; details: antagonist mode; scale not given, looks like -log10 of molar active concentration; 0 = no activity
T4 construct: expressed in transfected cells; host or cells: HEK293
T4 sequence (P03372 whole entry, the tested form may be a part): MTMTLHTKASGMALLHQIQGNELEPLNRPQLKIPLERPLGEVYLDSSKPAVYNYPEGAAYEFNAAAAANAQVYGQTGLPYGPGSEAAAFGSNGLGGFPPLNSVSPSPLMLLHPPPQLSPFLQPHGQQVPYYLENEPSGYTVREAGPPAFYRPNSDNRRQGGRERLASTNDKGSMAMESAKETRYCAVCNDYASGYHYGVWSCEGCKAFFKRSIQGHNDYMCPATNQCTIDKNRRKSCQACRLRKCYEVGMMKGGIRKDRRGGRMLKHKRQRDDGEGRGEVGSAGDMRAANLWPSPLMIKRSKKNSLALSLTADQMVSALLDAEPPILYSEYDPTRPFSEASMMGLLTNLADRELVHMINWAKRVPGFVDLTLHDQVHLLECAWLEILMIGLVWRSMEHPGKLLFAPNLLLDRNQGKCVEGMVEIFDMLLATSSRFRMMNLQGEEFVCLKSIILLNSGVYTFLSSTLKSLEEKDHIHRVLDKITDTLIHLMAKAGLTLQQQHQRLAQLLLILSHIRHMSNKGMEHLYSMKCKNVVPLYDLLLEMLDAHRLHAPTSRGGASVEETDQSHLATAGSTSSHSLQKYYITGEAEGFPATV

LXRa (NR1H2) = assay: NCGC_LXR_Agonist: GAL4 BLAM Reporter gene assay: LXRa; format: cell-based, human; details: agonist mode; scale not given, looks like -log10 of molar active concentration; 0 = no activity
Protocol: These assays measure binding constants and enzyme inhibition values for nuclear receptors. The targets include [drawing 67] , [drawing 68] , [drawing 69] , [drawing 70] , [drawing 71] , [drawing 72] , [drawing 73] , [drawing 74] , [drawing 75] and [drawing 76] . Each of the nuclear receptor targets was measured in agonist mode. Assays were run at the NIH Chemical Genomics Center (Rockville, MD).
Cell-based HTS Assays: These assays measuring binding constants and enzyme inhibition values for nuclear receptors. The targets include AR, ER, FXR, LXR, PPARα, PPARδ, PPARγ, RXRα, RXRβ and PXR. Each of the nuclear receptor targets was measured in both agonist and antagonist mode, but the antagonist data is still undergoing analysis due to possible interference between cytotoxicity and assay activity, so antagonist mode data were not used in the present analysis. Assays were run at the NIH Chemical Genomics Center (Rockville, MD) as part of the Tox21 collaboration. […] The R^2 was required to be ≥0.5. Values where only the highest concentration exceeded 50% activity were excluded to eliminate weak or false positives. Detailed description of the methods, data and analysis methods for this dataset will be presented in a separate publication.

OB(O)O [r41]
0: ATG_Ahr_CIS [1] | ATG_LXRb_TRANS (LXRb (NR1H2)) | ATG_PPARa_TRANS [2] | NCGC_ERalpha_Antagonist (ERa (ESR1)) | NCGC_LXR_Agonist (LXRa (NR1H2))

CCCCOCN(C(=O)CCl)c1c(CC)cccc1CC [r46]
0: ATG_Ahr_CIS [1] | ATG_LXRb_TRANS (LXRb (NR1H2)) | ATG_PPARa_TRANS [2] | NCGC_ERalpha_Antagonist (ERa (ESR1)) | NCGC_LXR_Agonist (LXRa (NR1H2))

COc1nc(C)nc(NC(=O)NS(=O)(=O)c2ccccc2Cl)n1 [r63]
0: ATG_Ahr_CIS [1] | ATG_LXRb_TRANS (LXRb (NR1H2)) | ATG_PPARa_TRANS [2] | NCGC_ERalpha_Antagonist (ERa (ESR1)) | NCGC_LXR_Agonist (LXRa (NR1H2))

CCSC(=O)N(CC(C)C)CC(C)C [r49]
0: ATG_Ahr_CIS [1] | ATG_LXRb_TRANS (LXRb (NR1H2)) | ATG_PPARa_TRANS [2] | NCGC_ERalpha_Antagonist (ERa (ESR1)) | NCGC_LXR_Agonist (LXRa (NR1H2))
